Reference: PubChem BioAssay AID342 (DTP/NCI, 2004)
Where “and” joins values, the source holds several entries; their conditions need not be identical. Equal values may be shown once.

Test system: Swiss mice, Sarcoma 180 sc, mean tumor weight T/C
Assay: NCI In Vivo Anticancer Drug Screen. Data for tumor model Sarcoma 180 (subcutaneous) in Swiss mice
Details: endpoint: mean tumor weight, higher = larger tumour
How it was run: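 Tumor-bearing mice, transplantable tumor; readout survival or tumor size; result = T/C, treated vs vehicle control.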

[1] = dose: 15.0 mg/kg/injection, schedule: Q01DX007 (ip), vehicle: carboxymethylcellulose (CMC)
[2] = dose: 80.0 mg/kg/injection, schedule: Q01DX007 (ip), vehicle: carboxymethylcellulose (CMC)

CC(C)C(=O)OCC1OC(n2cnc3c(=S)nc(N)[nH]c32)C(OC(=O)C(C)C)C1OC(=O)C(C)C (configuration not stated)
T/C (dose: 6.0 mg/kg/injection, schedule: Q01DX007 (ip), vehicle: carboxymethylcellulose (CMC)): 72 % of control | T/C (dose: 9.0 mg/kg/injection, schedule: Q01DX007 (ip), vehicle: carboxymethylcellulose (CMC)): 42 % of control | T/C (dose: 14.0 mg/kg/injection, schedule: Q01DX007 (ip), vehicle: methylcellulose (MC)): 42 % of control | T/C (dose: 21.0 mg/kg/injection, schedule: Q01DX007 (ip), vehicle: carboxymethylcellulose (CMC)): 5 % of control and 21 % of control | T/C (dose: 21.0 mg/kg/injection, schedule: Q01DX007 (ip), vehicle: methylcellulose (MC)): 29 % of control | T/C (dose: 31.0 mg/kg/injection, schedule: Q01DX007 (ip), vehicle: carboxymethylcellulose (CMC)): 7 % of control | T/C (dose: 31.0 mg/kg/injection, schedule: Q01DX007 (ip), vehicle: methylcellulose (MC)): 22 % of control

N#Cc1cn(C2OC(CO)C(O)C2O)c2ncnc(N)c12 (configuration not stated)
T/C (dose: 0.05 mg/kg/injection, schedule: Q#A X014 (ip), vehicle: carboxymethylcellulose (CMC)): 79 % of control

CCC(=O)NC
T/C (dose: 1000.0 mg/kg/injection, schedule: Q01DX007 (ip), vehicle: other): 41 % of control and 63 % of control | T/C (dose: 1250.0 mg/kg/injection, schedule: Q01DX007 (ip), vehicle: other): 14 % of control and 33 % of control

C1CCCNCC1
T/C (dose: 15.5 mg/kg/injection, schedule: Q01DX007 (ip), vehicle: other): 92 % of control | T/C (dose: 31.0 mg/kg/injection, schedule: Q01DX007 (ip), vehicle: other): 69 % of control | T/C (dose: 62.5 mg/kg/injection, schedule: Q01DX007 (ip), vehicle: other): 103 % of control | T/C (dose: 125.0 mg/kg/injection, schedule: Q01DX007 (ip), vehicle: other): 69 % of control | T/C (dose: 200.0 mg/kg/injection, schedule: Q01DX007 (ip), vehicle: other): 69 % of control

CCOC(=O)CCCc1ccc(N/N=N/c2nc[nH]c2C(N)=O)cc1
T/C (dose: 46.0 mg/kg/injection, schedule: Q01DX007 (ip), vehicle: carboxymethylcellulose (CMC)): 79 % of control and 80 % of control | T/C (dose: 187.0 mg/kg/injection, schedule: Q01DX007 (ip), vehicle: carboxymethylcellulose (CMC)): 46 % of control | T/C (dose: 250.0 mg/kg/injection, schedule: Q01DX007 (ip), vehicle: carboxymethylcellulose (CMC)): 39 % of control

O=P1(N(CCCl)CCCl)NCCCO1 (configuration not stated)
T/C (dose: 12.5 mg/kg/injection, schedule: Q01DX007 (ip), vehicle: carboxymethylcellulose (CMC)): 50 % of control and 55 % of control | T/C [1]: 88 % of control | T/C (dose: 23.88 mg/kg/injection, schedule: Q01DX007 (ip), vehicle: carboxymethylcellulose (CMC)): 101 % of control | T/C (dose: 25.0 mg/kg/injection, schedule: Q01DX007 (ip), vehicle: carboxymethylcellulose (CMC)): 70 % of control | T/C (dose: 29.85 mg/kg/injection, schedule: Q01DX007 (ip), vehicle: carboxymethylcellulose (CMC)): 97 % of control | T/C (dose: 30.0 mg/kg/injection, schedule: Q01DX007 (ip), vehicle: carboxymethylcellulose (CMC)): 25 % of control | T/C (dose: 39.8 mg/kg/injection, schedule: Q01DX007 (ip), vehicle: carboxymethylcellulose (CMC)): 72 % of control | T/C (dose: 59.7 mg/kg/injection, schedule: Q01DX007 (ip), vehicle: carboxymethylcellulose (CMC)): 34 % of control | T/C (dose: 60.0 mg/kg/injection, schedule: Q01DX007 (ip), vehicle: carboxymethylcellulose (CMC)): 4 % of control | T/C [2]: 4 % of control | T/C (dose: 746.25 mg/kg/injection, schedule: Q#A X014 (ip), vehicle: carboxymethylcellulose (CMC)): 65 % of control | T/C (dose: 1492.5 mg/kg/injection, schedule: Q#A X014 (ip), vehicle: carboxymethylcellulose (CMC)): 45 % of control | T/C (dose: 2985.0 mg/kg/injection, schedule: Q#A X014 (ip), vehicle: carboxymethylcellulose (CMC)): 7 % of control | T/C (dose: 3731.0 mg/kg/injection, schedule: Q#A X014 (ip), vehicle: carboxymethylcellulose (CMC)): 67 % of control

CCC(c1ccc(O)cc1)C(CC)c1ccc(OC)cc1 (configuration not stated)
T/C (dose: 2.0 mg/kg/injection, schedule: Q#A X014 (sc), vehicle: steriod suspending solution): 45 % of control and 53 % of control | T/C (dose: 2.35 mg/kg/injection, schedule: Q#A X014 (ip), vehicle: methylcellulose (MC)): 25 % of control | T/C (dose: 3.5 mg/kg/injection, schedule: Q#A X014 (ip), vehicle: methylcellulose (MC)): 32 % of control | T/C (dose: 5.0 mg/kg/injection, schedule: Q#A X014 (ip), vehicle: methylcellulose (MC)): 40 % of control | T/C (dose: 5.5 mg/kg/injection, schedule: Q#A X014 (sc), vehicle: steriod suspending solution): 39 % of control and 52 % of control | T/C (dose: 7.5 mg/kg/injection, schedule: Q#A X014 (ip), vehicle: methylcellulose (MC)): 41 % of control | T/C (dose: 8.5 mg/kg/injection, schedule: Q#A X014 (ip), vehicle: distilled water + alcohol): 15 % of control | T/C (dose: 12.5 mg/kg/injection, schedule: Q#A X014 (ip), vehicle: distilled water + alcohol): 27 % of control | T/C (dose: 16.5 mg/kg/injection, schedule: Q#A X014 (sc), vehicle: steriod suspending solution): 35 % of control and 48 % of control | T/C (dose: 18.5 mg/kg/injection, schedule: Q#A X014 (ip), vehicle: distilled water + alcohol): 12 % of control | T/C (dose: 27.5 mg/kg/injection, schedule: Q#A X014 (ip), vehicle: distilled water + alcohol): 19 % of control | T/C (dose: 27.5 mg/kg/injection, schedule: Q#A X014 (ip), vehicle: olive oil, sesame oil, peanut oil): 49 % of control | T/C (dose: 27.75 mg/kg/injection, schedule: Q#A X014 (ip), vehicle: methylcellulose (MC)): 24 % of control and 46 % of control | T/C (dose: 41.5 mg/kg/injection, schedule: Q#A X014 (ip), vehicle: olive oil, sesame oil, peanut oil): 48 % of control | T/C (dose: 41.65 mg/kg/injection, schedule: Q#A X014 (ip), vehicle: methylcellulose (MC)): 20 % of control and 24 % of control | T/C (dose: 50.0 mg/kg/injection, schedule: Q#A X014 (sc), vehicle: steriod suspending solution): 33 % of control and 36 % of control | T/C (dose: 62.5 mg/kg/injection, schedule: Q#A X014 (ip), vehicle: methylcellulose (MC)): 20 % of control and 32 % of control | T/C (dose: 62.5 mg/kg/injection, schedule: Q#A X014 (ip), vehicle: olive oil, sesame oil, peanut oil): 69 % of control | T/C (dose: 94.0 mg/kg/injection, schedule: Q#A X014 (ip), vehicle: methylcellulose (MC)): 28 % of control and 36 % of control | T/C (dose: 94.0 mg/kg/injection, schedule: Q#A X014 (ip), vehicle: olive oil, sesame oil, peanut oil): 42 % of control | T/C (dose: 150.0 mg/kg/injection, schedule: Q#A X014 (sc), vehicle: steriod suspending solution): 29 % of control and 44 % of control

NNc1nncc2ccccc12
T/C (dose: 37.5 mg/kg/injection, schedule: Q01DX007 (ip), vehicle: carboxymethylcellulose (CMC)): 116 % of control | T/C (dose: 75.0 mg/kg/injection, schedule: Q01DX007 (ip), vehicle: carboxymethylcellulose (CMC)): 100 % of control

CCCC(=O)OCC1OC(n2cnc3c(=S)nc(N)[nH]c32)C(OC(=O)CCC)C1OC(=O)CCC (configuration not stated)
T/C (dose: 4.1 mg/kg/injection, schedule: Q01DX007 (ip), vehicle: carboxymethylcellulose (CMC)): 52 % of control | T/C (dose: 6.2 mg/kg/injection, schedule: Q01DX007 (ip), vehicle: carboxymethylcellulose (CMC)): 72 % of control | T/C (dose: 9.3 mg/kg/injection, schedule: Q01DX007 (ip), vehicle: carboxymethylcellulose (CMC)): 45 % of control | T/C (dose: 47.0 mg/kg/injection, schedule: Q01DX007 (ip), vehicle: carboxymethylcellulose (CMC)): 39 % of control

Nc1nc(=S)c2ncn(C3OC(COC(=O)c4ccc([N+](=O)[O-])cc4)C(OC(=O)c4ccc([N+](=O)[O-])cc4)C3OC(=O)c3ccc([N+](=O)[O-])cc3)c2[nH]1 (configuration not stated)
T/C (dose: 4.0 mg/kg/injection, schedule: Q01DX007 (ip), vehicle: carboxymethylcellulose (CMC)): 77 % of control | T/C (dose: 7.0 mg/kg/injection, schedule: Q01DX007 (ip), vehicle: carboxymethylcellulose (CMC)): 94 % of control | T/C [1]: 93 % of control and 110 % of control | T/C (dose: 23.0 mg/kg/injection, schedule: Q01DX007 (ip), vehicle: methylcellulose (MC)): 63 % of control | T/C (dose: 35.0 mg/kg/injection, schedule: Q01DX007 (ip), vehicle: carboxymethylcellulose (CMC)): 37 % of control | T/C (dose: 36.0 mg/kg/injection, schedule: Q01DX007 (ip), vehicle: carboxymethylcellulose (CMC)): 29 % of control and 32 % of control | T/C (dose: 36.0 mg/kg/injection, schedule: Q01DX007 (ip), vehicle: methylcellulose (MC)): 77 % of control | T/C (dose: 53.0 mg/kg/injection, schedule: Q01DX007 (ip), vehicle: carboxymethylcellulose (CMC)): 15 % of control and 30 % of control | T/C (dose: 53.0 mg/kg/injection, schedule: Q01DX007 (ip), vehicle: methylcellulose (MC)): 56 % of control | T/C [2]: 16 % of control | T/C (dose: 80.0 mg/kg/injection, schedule: Q01DX007 (ip), vehicle: methylcellulose (MC)): 62 % of control

COC(=O)C1C2CC3c4[nH]c5cc(OC)ccc5c4CCN3CC2CC(OC(=O)c2cc(OC)c(OC)c(OC)c2)C1OC (configuration not stated)
T/C (dose: 0.5 mg/kg/injection, schedule: Q01DX007 (ip), vehicle: saline): 155 % of control | T/C (dose: 1.0 mg/kg/injection, schedule: Q01DX007 (ip), vehicle: saline): 85 % of control | T/C (dose: 2.0 mg/kg/injection, schedule: Q01DX007 (ip), vehicle: saline): 62 % of control | T/C (dose: 4.0 mg/kg/injection, schedule: Q01DX007 (ip), vehicle: saline): 83 % of control and 85 % of control | T/C (dose: 8.0 mg/kg/injection, schedule: Q01DX007 (ip), vehicle: saline): 115 % of control | T/C (dose: 16.0 mg/kg/injection, schedule: Q01DX007 (ip), vehicle: saline): 92 % of control | T/C (dose: 32.0 mg/kg/injection, schedule: Q01DX007 (ip), vehicle: saline): 90 % of control
